Biological target: T1, SynLPD (dihydrolipoyl dehydrogenase, E3 subunit of the PDH complex) (Synechocystis sp. PCC 6803, UniProt P72740)
T1 construct: gene lpdA
T1 sequence (P72740 2-474): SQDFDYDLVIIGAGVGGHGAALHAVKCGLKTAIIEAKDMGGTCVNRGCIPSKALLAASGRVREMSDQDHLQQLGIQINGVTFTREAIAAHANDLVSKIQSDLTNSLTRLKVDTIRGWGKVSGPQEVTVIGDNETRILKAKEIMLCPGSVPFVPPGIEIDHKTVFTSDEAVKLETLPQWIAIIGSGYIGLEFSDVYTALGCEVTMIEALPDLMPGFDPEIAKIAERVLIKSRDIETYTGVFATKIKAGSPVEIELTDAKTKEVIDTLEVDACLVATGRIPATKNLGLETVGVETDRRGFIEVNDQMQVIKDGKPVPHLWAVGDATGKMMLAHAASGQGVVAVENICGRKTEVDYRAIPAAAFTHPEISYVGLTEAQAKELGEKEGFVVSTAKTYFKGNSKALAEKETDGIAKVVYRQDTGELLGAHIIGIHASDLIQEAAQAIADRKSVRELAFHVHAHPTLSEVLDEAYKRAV
Assay: NAD+ reduction at […] nm; Ki from slopes of Lineweaver-Burk plots
Assay type: biochemical

Compound: NC(=O)C1=CN([C@@H]2O[C@H](COP(=O)(O)OP(=O)(O)OC[C@H]3O[C@@H](n4cnc5c(N)ncnc54)[C@H](O)[C@@H]3O)[C@@H](O)[C@H]2O)C=CC1 [NADH]
- Ki: 38.3 µM

Source: PMC8887894, “Pyruvate:ferredoxin oxidoreductase and low abundant ferredoxins support aerobic photomixotrophic growth in cyanobacteria” (eLife, 2022)
